# From ChEMBL document CHEMBL4130368, “Thienopyrimidine derivatives exert their anticancer efficacy via apoptosis induction, oxidative stress and mitotic catastrophe” (Eur J Med Chem, 2017)
# Active and inactive are the calls of the source. No cut-off for these calls is given here.
# Key:
# [1] = Selectivity index, ratio of IC50 for CHO cells to IC50 for human GBM10 cells; type: toxicity; settings: Chinese hamster (CHO cells), CHO cells versus GBM10 cells, read-out: Ratio IC50
# [2] = tested on: 2008; test: Cell cycle arrest in human OV2008 cells assessed as accumulation at G1 phase at 1 uM measured after overnight incubation by propidium iodide staining-based flow cytometry (reference value: 52.6%); type: functional
# [3] = tested on: 2008; test: Induction of mitotic catastrophe in human OV2008 cells assessed as formation of de-condensed multiple micronuclei at 0.5 to 2 uM measured after overnight incubation by DAPI-staining based microscopy; type: functional, cell-based
# [4] = tested on: HCT-116; test: Induction of apoptosis in human HCT116 cells assessed as late apoptotic cells at 1 uM measured after overnight incubation by mitotracker red/alexa fluor-488 Annexin V staining-based flow cytometry (reference value: 0%); type: functional
# [5] = tested on: CHO; test: Cytotoxicity against CHO cells assessed as reduction in cell survival after 72 hrs by MTT assay; type: ADME, cell-based; settings: Cricetulus griseus
# [6] = tested on: A2780; test: Cell cycle arrest in human A2780 cells assessed as accumulation at S phase at 2 uM measured after overnight incubation by propidium iodide staining-based flow cytometry (reference value: 15.2%); type: functional
# [7] = tested on: A2780; test: Induction of morphological changes in human A2780 cells at 0.1 to 3 uM after 68 hrs by microscopic method; type: functional, cell-based
# [8] = tested on: HCT-116; test: Cell cycle arrest in human HCT116 cells assessed as accumulation at G1 phase at 2 uM measured after overnight incubation by propidium iodide staining-based flow cytometry (reference value: 63.5%); type: functional
# [9] = tested on: HCT-116; test: Induction of apoptosis in human HCT116 cells assessed as cell shrinkage at 0.5 to 2 uM measured after overnight incubation by DAPI-staining based microscopy; type: functional
structure (smiles),measurement,setting,value
COc1ccc(-c2nc(O)c3c4c(sc3n2)CCCC4)cc1,selectivity ratio,[1],17 to 28
same,Activity,[2],19.5%
same,Activity,[3],Active
same,Activity,[4],0%
same,IC50,[5],14 µM
same,Activity,[6],9.02%
same,Activity,[7],Active
same,Activity,[8],29.5%
same,Activity,[9],Active
